What was measured:
barnyardgrass [1] = assay: Test A pre-/postemergence herbicide test; format: in vivo, Echinochloa crus-galli
In short: (§1)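 Greenhouse injury scoring (0–100, complete control = 100) at approximately ten days follows simultaneous pre- and postemergence application. Soil received a directed spray after seeding; seedlings of 2–10 cm at the one- to two-leaf stage were sprayed to runoff.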

large crabgrass [2] = assay: Test A pre-/postemergence herbicide test; format: in vivo, Digitaria sanguinalis
In short: as §1

giant foxtail [3] = assay: Test A pre-/postemergence herbicide test; format: in vivo, Setaria faberi
In short: as §1

morningglory [4] = assay: Test A pre-/postemergence herbicide test; format: in vivo, Ipomoea spp.
In short: as §1

redroot pigweed = assay: Test A pre-/postemergence herbicide test; format: in vivo, Amaranthus retroflexus
In short: as §1

velvetleaf [5] = assay: Test A pre-/postemergence herbicide test; format: in vivo, Abutilon theophrasti
In short: as §1

barnyardgrass [6] = assay: Test B pre-/postemergence herbicide test; format: in vivo, Echinochloa crus-galli
In short: (§2)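 Formulation: non-phytotoxic solvent mix with surfactant. Timing: preemergence on seed and postemergence on 2–18 cm plants, applied concurrently. Readout after 13–15 d greenhouse: visual 0–100 control rating against controls.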

Surinam grass = assay: Test B pre-/postemergence herbicide test; format: in vivo, Urochloa decumbens
In short: (§3)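 Seeds were planted and treated preemergence with compounds formulated in a non-phytotoxic solvent mixture containing surfactant, while plants at the 1- to 4-leaf stage (2 to 18 cm) received postemergence sprays. Flooded paddy plants were grown to the 2-leaf stage. After 13 to 15 days in a greenhouse, injury was visually rated 0–100 against untreated controls.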

cocklebur = assay: Test B pre-/postemergence herbicide test; format: in vivo, Xanthium strumarium
In short: as §2

corn = assay: Test B pre-/postemergence herbicide test; format: in vivo, Zea mays
In short: as §3

large crabgrass [7] = assay: Test B pre-/postemergence herbicide test; format: in vivo, Digitaria sanguinalis
In short: as §3

giant foxtail [8] = assay: Test B pre-/postemergence herbicide test; format: in vivo, Setaria faberi
In short: as §3

lambsquarters = assay: Test B pre-/postemergence herbicide test; format: in vivo, Chenopodium album
In short: as §3

morningglory [9] = assay: Test B pre-/postemergence herbicide test; format: in vivo, Ipomoea coccinea
In short: as §2

pigweed = assay: Test B pre-/postemergence herbicide test; format: in vivo, Amaranthus retroflexus
In short: as §3

rice [10] = assay: Test B pre-/postemergence herbicide test; format: in vivo, Oryza sativa; conditions: preemergence
In short: as §3

velvetleaf [11] = assay: Test B pre-/postemergence herbicide test; format: in vivo, Abutilon theophrasti
In short: as §3

blackgrass = assay: Test B postemergence herbicide test; format: in vivo, Alopecurus myosuroides; conditions: scale 0 (no effect) to 100 (complete control)
In short: (§4)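 Scale 0–100: zero equals no visible effect, 100 complete control, judged by eye relative to controls. Timing: 13 to 15 days in greenhouse post-treatment. Growth stage at spraying: two leaves (paddy) or one to four leaves, 2–18 cm (postemergence).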

wheat = assay: Test B postemergence herbicide test; format: in vivo, Triticum aestivum; parameters: key to Wheat plant response rating: 0 = no effect, 100 = complete control; conditions: scale 0 (no effect) to 100 (complete control)
In short: (§5)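 Postemergence plants were sprayed with formulated test chemicals at 2 to 18 cm height (1- to 4-leaf stage); paddy species were grown to the 2-leaf stage. After 13 to 15 days in a greenhouse, injury was rated visually against untreated controls on a 0–100 scale (0 = no effect, 100 = complete control).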

wild oat = assay: Test B postemergence herbicide test; format: in vivo, Avena fatua; conditions: scale 0 (no effect) to 100 (complete control)
In short: as §5

rice [12] = assay: Test B flooded paddy test; format: in vivo, Oryza sativa; conditions: 1000 g ai/ha, visual rating, scale 0 to 100 (0 no effect, 100 complete control), 13 to 15 days
In short: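 Visual ratings, 0 (no effect) to 100 (complete control), made versus controls after 13–15 d greenhouse. Paddy plants treated at 2-leaf stage; postemergence plants at 1- to 4-leaf stage, 2–18 cm tall.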

[13] = system: small flower umbrella sedge; assay: Test B flooded paddy test; format: in vivo, Cyperus difformis; conditions: 1000 g ai/ha, visual rating, scale 0 to 100 (0 no effect, 100 complete control), 13 to 15 days
In short: as §4

ducksalad = assay: Test B flooded paddy test; format: in vivo, Heteranthera limosa; conditions: 1000 g ai/ha, visual rating, scale 0 to 100 (0 no effect, 100 complete control), 13 to 15 days
In short: as §4

barnyardgrass [14] = assay: Test B flooded paddy test; format: in vivo, Echinochloa crus-galli; conditions: 1000 g ai/ha, visual rating, scale 0 to 100 (0 no effect, 100 complete control), 13 to 15 days
In short: as §4

[15] = Postemergence, 500 g ai/ha, 0 to 100 scale, 0 no effect, 100 complete control
[16] = Postemergence, 2000 g ai/ha, 0 to 100 scale, 0 no effect, 100 complete control
[17] = Preemergence, 500 g ai/ha, visual rating, 0 to 100 scale (0 no effect, 100 complete control)
[18] = Preemergence, 2000 g ai/ha, visual rating, 0 to 100 scale (0 no effect, 100 complete control)
[19] = 500 g ai/ha, visual rating 0-100, 0 no effect, 100 complete control, preemergence
[20] = Postemergence, 500 g ai/ha, visual rating after 13 to 15 days, scale 0 (no effect) to 100 (complete control)
[21] = postemergence, 125 g ai/ha, visual rating, scale 0 (no effect) to 100 (complete control)
[22] = preemergence, 125 g ai/ha, 0 to 100 scale, 0 is no effect, 100 is complete control
[23] = Postemergence, 500 g ai/ha, visual rating after 13 to 15 days
[24] = postemergence, 125 g ai/ha, visual rating

SMILES: CCOC(=O)c1cccc(NC(=O)c2cc(C(C)(C)C)nn2CC)c1OC [Compound 97]
- Barnyardgrass plant response rating (barnyardgrass [1]; [15]): 5
- Plant response rating, Barnyardgrass (barnyardgrass [1]; [16]): 10
- Barnyardgrass plant response rating (barnyardgrass [1]; [17]): 0
- Barnyardgrass plant response rating (barnyardgrass [1]; [18]): 0
- Crabgrass, Large plant response rating (large crabgrass [2]; [15]): 10
- Plant response rating, Crabgrass, Large (large crabgrass [2]; [16]): 10
- Crabgrass, Large plant response rating (large crabgrass [2]; [17]): 0
- Crabgrass, Large plant response rating (large crabgrass [2]; [18]): 0
- Foxtail, Giant plant response rating (giant foxtail [3]; [15]): 5
- Plant response rating, Foxtail, Giant (giant foxtail [3]; [16]): 10
- Foxtail, Giant plant response rating (giant foxtail [3]; [17]): 0
- Foxtail, Giant plant response rating (giant foxtail [3]; [18]): 0
- Morningglory plant response rating (morningglory [4]; [15]): 0
- Plant response rating, Morningglory (morningglory [4]; [16]): 0
- Morningglory plant response rating (morningglory [4]; [17]): 0
- Morningglory plant response rating (morningglory [4]; [18]): 0
- Pigweed plant response rating (redroot pigweed; [15]): 0
- Plant response rating, Pigweed (redroot pigweed; [16]): 25
- Pigweed plant response rating (redroot pigweed; [17]): 0
- Pigweed plant response rating (redroot pigweed; [18]): 0
- Velvetleaf plant response rating (velvetleaf [5]; [15]): 5
- Plant response rating, Velvetleaf (velvetleaf [5]; [16]): 10
- Velvetleaf plant response rating (velvetleaf [5]; [17]): 0
- Velvetleaf plant response rating (velvetleaf [5]; [18]): 0
- Plant response rating, Barnyardgrass (barnyardgrass [6]; [19]): 0
- Plant response rating, Barnyardgrass (barnyardgrass [6]; [20]): 0
- Barnyardgrass plant response rating (barnyardgrass [6]; [21]): 0
- Plant response rating, Barnyardgrass (barnyardgrass [6]; [22]): 0
- Plant response rating, Surinam Grass (Surinam grass; [19]): 0
- Plant response rating, Surinam Grass (Surinam grass; [20]): 0
- Surinam Grass plant response rating (Surinam grass; [21]): 0
- Plant response rating, Surinam Grass (Surinam grass; [22]): 0
- Plant response rating, Cocklebur (cocklebur; [19]): 0
- Plant response rating, Cocklebur (cocklebur; [20]): 70
- Cocklebur plant response rating (cocklebur; [21]): 0
- Plant response rating, Cocklebur (cocklebur; [22]): 0
- Plant response rating, Corn (corn; [19]): 0
- Plant response rating, Corn (corn; [20]): 0
- Corn plant response rating (corn; [21]): 0
- Plant response rating, Corn (corn; [22]): 0
- Plant response rating, Crabgrass, Large (large crabgrass [7]; [19]): 0
- Plant response rating, Crabgrass, Large (large crabgrass [7]; [20]): 0
- Crabgrass, Large plant response rating (large crabgrass [7]; [21]): 0
- Plant response rating, Crabgrass, Large (large crabgrass [7]; [22]): 0
- Plant response rating, Foxtail, Giant (giant foxtail [8]; [19]): 0
- Plant response rating, Foxtail, Giant (giant foxtail [8]; [20]): 0
- Foxtail, Giant plant response rating (giant foxtail [8]; [21]): 0
- Plant response rating, Foxtail, Giant (giant foxtail [8]; [22]): 0
- Plant response rating, Lambsquarters (lambsquarters; [19]): 0
- Plant response rating, Lambsquarters (lambsquarters; [20]): 70
- Lambsquarters plant response rating (lambsquarters; [21]): 50
- Plant response rating, Lambsquarters (lambsquarters; [22]): 0
- Plant response rating, Morningglory (morningglory [9]; [19]): 0
- Plant response rating, Morningglory (morningglory [9]; [20]): 0
- Morningglory plant response rating (morningglory [9]; [21]): 0
- Plant response rating, Morningglory (morningglory [9]; [22]): 0
- Plant response rating, Pigweed (pigweed; [19]): 0
- Plant response rating, Pigweed (pigweed; [20]): 0
- Pigweed plant response rating (pigweed; [21]): 0
- Plant response rating, Pigweed (pigweed; [22]): 0
- Plant response rating, Rice (rice [10]; 500 g ai/ha, visual rating 0-100, 0 no effect, 100 complete control): 0
- Plant response rating, Rice (rice [10]; 125 g ai/ha, 0 to 100 scale, 0 is no effect, 100 is complete control): 0
- Plant response rating, Velvetleaf (velvetleaf [11]; [19]): 0
- Plant response rating, Velvetleaf (velvetleaf [11]; [20]): 60
- Velvetleaf plant response rating (velvetleaf [11]; [21]): 0
- Plant response rating, Velvetleaf (velvetleaf [11]; [22]): 0
- Plant response rating, Blackgrass (blackgrass; [23]): 0
- Blackgrass plant response rating (blackgrass; [24]): 0
- Plant response rating, Wheat (wheat; [23]): 0
- Wheat plant response rating (wheat; [24]): 0
- Plant response rating, Oat, Wild (wild oat; [23]): 0
- Oat, Wild plant response rating (wild oat; [24]): 0
- Rice plant response rating (rice [12]): 0
- Sedge, Umbrella plant response rating [13]: 70
- Ducksalad plant response rating (ducksalad): 50
- Barnyardgrass plant response rating (barnyardgrass [14]): 0

From patent US20060069132A1, “Azolecarboxamide herbicides” (priority 2004, published 2006)
